Test results reported in US20100029755A1, “P-Glycoprotein inhibitor comprising octilonium bromide as an effective ingredient” (priority 2002, published 2010).
Read-outs that look alike come from different tables or passages of the source.

What was measured:
p-glycoprotein [1] = details: SD, rat, 1 h, pH 6.4
p-glycoprotein [2] = details: SD, rat, 1 h, 10 μg/ml, pH 6.4
[3] = administered orally; cited from earlier work

Row | absorbed amount of the doxorubicin (p-glycoprotein [1]; 50 μg/ml) [μg/g tissue] | absorbed doxorubicin as % of the total applied amount (p-glycoprotein [1]; 50 μg/ml) [%] | absorbed rhodamine 123 as % of the total applied amount (p-glycoprotein [2]) [%] | amount of the absorbed rhodamine 123 (p-glycoprotein [2]) [μg/g tissue] | increase of the amount of absorbed rhodamine by octylonium bromide (p-glycoprotein [2]) [folds] | absorbed amount of the doxorubicin (p-glycoprotein [1]; 200 μg/ml) [μg/g tissue] | absorbed doxorubicin as % of the total applied amount (p-glycoprotein [1]; 200 μg/ml) [%] | increase of the amount of absorbed doxorubicin by octylonium bromide (p-glycoprotein [1]; 200 μg/ml) [folds] | Structure (SMILES) | fraction of octylonium bromide absorbed systemically [3] [%] | fraction of octylonium bromide remaining in the gastrointestinal tract [3] [%]
1 | 0.4 | 0.12 | – | – | – | – | – | – | COc1cccc2c1C(=O)c1c(O)c3c(c(O)c1C2=O)C[C@@](O)(C(=O)CO)C[C@@H]3O[C@H]1C[C@H](N)[C@H](O)[C@H](C)O1 [doxorubicin] | – | –
2 | – | – | 14.5 | 4.3 | 4.5 | 11 | 3.3 | 28 | CCCCCCCCOc1ccccc1C(=O)Nc1ccc(C(=O)OCC[N+](C)(CC)CC)cc1 [octylonium bromide] | 5 | 95
